This passage reports EC50 results from PubChem BioAssay AID1259335.

Molecules are shown by their SMILES.

For the assay, the system named is C. elegans L1 growth, INVAPP imaging, 5 days. The assay can be described thus: C. elegans growth inhibition, confirmation, whole organism (AID 1259335).
A word on the EC50: it is the midpoint of the concentration-response curve. For `COC(=O)Nc1nc2ccc(C(=O)c3ccccc3)cc2[nH]1`, the EC50 is 1100 nM.

With `O=C(Nc1ccc(F)c(-c2nc3ncc(-c4ccccc4)cc3[nH]2)c1)N1CCCC1`, the EC50 was 3300 nM.

Consider `CCc1nn(C)c(C(=O)NCc2ccc(Oc3ccc(C)cc3)cc2)c1Cl`, for which the EC50 was 200 nM.

On to `Nc1ccc(C(=O)Nc2ccc(-c3nc4ccccc4o3)cc2)cc1`, for which the EC50 is 6200 nM.

For `COC(=O)C1=C(C)NC(C)=C(C(=O)OC(C)C)[C@H]1c1cccc2nonc12`, the EC50 was 1600 nM.

On to `O=C(Nc1ccc2c(c1)B(O)OC2)c1ccccc1C(F)(F)F`, for which the EC50 is 4300 nM.

As to `Cc1cc(C(=O)Nc2ccc(-c3ccccc3)cc2)no1`, the EC50 is 2500 nM.
